The source of these data is the METLIN SMRT retention time set (Domingo-Almenara et al. 2019).

The data set in a line: gradient 5% acetonitrile 3 min, to 50% in 2 min, to 85% in 15 min, held 3 min, 100 µL/min. The following applies: column: Zorbax Extend-C18 2.1 x 50 mm; eluents: water / acetonitrile, 0.1% formic acid. The procedure, abridged:
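In both positive and negative ionization mode, a quadrupole time-of-flight mass spectrometer coupled to HPLC analyzed pure standards run in mixtures of ~100 molecules. The Zorbax Extend-C18 column (2.1 × 50 mm, 1.8 μm) was operated at 100 μL/min with water and acetonitrile, each containing 0.1% formic acid. The dead volume was 40 μL and the dwell volume 900 μL. Retention time came from adduct peaks that were computationally picked and individually inspected by hand.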
`Cc1ccc(N2C(=O)C3N=NN(Cc4nc(-c5ccc(Br)cc5)no4)C3C2=O)cc1C` (centres undefined) displayed an RP-LC retention time of 1130 s.

Molecule `NC(CO)(CO)CCc1ccc(Sc2cccc(OCc3ccccc3)c2)cc1Cl` had an RP-LC retention time of 837 s.

On to `Cn1cnc2c(C(=O)N3CCOCC3)nn(-c3ccc(Cl)cc3)c2c1=O`, for which the RP-LC retention time was determined as 690 s.

Molecule `O=C(c1ccsc1)N1CCCCC1c1nncn1-c1ccccc1` (centres undefined) yielded an RP-LC retention time of 676 s.

On to `Cc1ccc(C)c(NC(=O)N2CCC(n3cnnc3C3CC3)C2)c1` (centres undefined), for which the RP-LC retention time was found to be 634 s.

On to `COc1ncc(C(=O)NCc2ccc(OC)c(OC)c2)cn1`, for which the RP-LC retention time stood at 638 s.

`COc1ccc(C2=CC(c3ccc(OC)c(OC)c3)c3c(c4ccccc4oc3=O)O2)cc1OC` (centres undefined) yielded an RP-LC retention time of 1140 s.

In turn, `Cn1nc(C(=O)N2CCCC(c3nnc(C(F)(F)F)o3)C2)ccc1=O` (centres undefined) had an RP-LC retention time of 638 s.

On to `Cc1nc(CCNC(=O)[C@H]2CCCN2C(=O)c2cccc(F)c2)cs1`, for which the RP-LC retention time was found to be 642 s.

Molecule `CC1CCN(c2ccc(-c3noc(CN4CCN(c5ccccn5)CC4)n3)cn2)CC1` returned an RP-LC retention time of 570 s.

`O=S(=O)(Nc1ccc(-c2cn3ccccc3n2)cc1)c1ccccc1` showed an RP-LC retention time of 600 s.

In turn, `CCNC(=O)N1CC(C(=O)N(C)C)C2(CCOCC2)C1` (centres undefined) came in with an RP-LC retention time of 520 s.

As to `CCNC(=O)Nc1ccc(OCC(=O)NC(C)c2cccc(OC)c2)nc1` (centres undefined), the RP-LC retention time was found to be 686 s.

Molecule `CCc1nc2cc(-c3noc(-c4cccnc4)n3)ccc2o1` had an RP-LC retention time of 912 s.

As to `CC(C)C(NC(=O)Cc1ccccc1Cl)C(=O)Nc1nc2ccccc2[nH]1` (centres undefined), the RP-LC retention time worked out at 731 s.

In the case of `CCN(CC)S(=O)(=O)c1ccc2c(c1)N(CC(=O)N(C)Cc1ccccc1)C(=O)C1CCCCN21` (centres undefined), the RP-LC retention time is 895 s.

`Cc1cccc(-c2noc(C3CCCN3C(=O)CNC(=O)c3cccs3)n2)c1` (centres undefined) yielded an RP-LC retention time of 610 s.

In the case of `O=S(=O)(c1ccccc1-c1nc(-c2ccccc2)no1)N1CCN(c2ccccc2)CC1`, the RP-LC retention time came to 1220 s.

In turn, `Cc1ccc(NC(=O)c2cccc([N+](=O)[O-])c2)c(C)c1` showed an RP-LC retention time of 830 s.

Consider `O=C(CN1C(=O)CCCc2cc(S(=O)(=O)N3CCCCC3)ccc21)Nc1ccc(Cl)cc1`, for which the RP-LC retention time turned out to be 990 s.

In the case of `Cn1cc(-c2nc(C(=O)NCc3ccccc3F)cs2)c2cccnc21`, the RP-LC retention time was 908 s.

The molecule `Cc1nc(-c2csc(S(=O)(=O)N3CCCC(C(=O)N(C)Cc4ccccc4)C3)c2)no1` (centres undefined) registered an RP-LC retention time of 939 s.

The molecule `COc1ccc(-c2nc(N3CCC(C)CC3)c3ccccc3n2)cc1` returned an RP-LC retention time of 860 s.

The molecule `CC(C)C(=O)N1CCN(c2ccc(Nc3c4c(nc5nc(-c6ccccc6)nn35)CCCC4)cc2)CC1` gave an RP-LC retention time of 898 s.

`COCCCNC(=O)C1CCCN(C(=O)c2cccc(C(F)(F)F)c2)C1` (centres undefined) yielded an RP-LC retention time of 698 s.

For the molecule `CC1(C(=O)NCc2ccc(F)cc2)CCCN(C(=O)Nc2ccc(F)cc2)C1` (centres undefined), the RP-LC retention time worked out at 887 s.

`CC(C)NC(=O)c1cc2nc(N(C)C)n(-c3ccccc3)c2s1` yielded an RP-LC retention time of 885 s.

`O=S(=O)(c1ccc(F)c(F)c1)N1CCc2nc(-c3ccc(F)cc3)ncc2C1`: the RP-LC retention time was 1110 s.

In the case of `Cn1nnc2ccc(-c3noc(COc4ccc(F)cc4)n3)cc21`, the RP-LC retention time is 924 s.

`COC(=O)c1c2c(nc3ccccc13)CCN(C(=O)Nc1ccccc1)C2` yielded an RP-LC retention time of 743 s.

In turn, `Cc1cccc(NC(=O)C2CCCN2S(=O)(=O)c2cc3c(cc2Cl)NC(=O)CO3)c1` (centres undefined) showed an RP-LC retention time of 822 s.

In turn, `CCOc1ccc(C(=O)N2CCN(c3ccc(-c4nc(C)cs4)cn3)CC2)cc1` had an RP-LC retention time of 884 s.

`CCOC(=O)c1c(S(=O)(=O)N2CCC(C(=O)Nc3ccc(C(C)C)cc3)CC2)c(C)n(C)c1C` showed an RP-LC retention time of 1020 s.

`O=C(NC1CCN(c2nnc3ccc(Cl)cn23)CC1)c1cccnc1` came in with an RP-LC retention time of 567 s.

With `O=C(c1cc(S(=O)(=O)N2CCCC(C(=O)N3CCCCCC3)C2)c[nH]1)N1CCCCCC1` (centres undefined), the RP-LC retention time is 824 s.

With `Nc1cccc2c1CN(C1CCC(=O)NC1=O)C2=O` (centres undefined), the RP-LC retention time is 595 s.

Molecule `CCOC(=O)C1CCN(C(=O)c2nnc(-c3ccc(S(=O)(=O)N4CCCCC4)cc3)o2)CC1` displayed an RP-LC retention time of 961 s.

Take `O=C(c1noc2ccc(S(=O)(=O)N3CCN(c4ccccn4)CC3)cc12)N1CCCC1`: the RP-LC retention time was 677 s.

`Cc1cnc(CC2CCN(C(=O)C3CCC3)C2)n1C(C)C` (centres undefined) had an RP-LC retention time of 585 s.

On to `Fc1ccccc1-c1nn2c(CSc3ccccc3)nnc2s1`, for which the RP-LC retention time was 981 s.

The molecule `COc1ccccc1NC(=O)Cn1nc2c(Oc3cccc(F)c3)nccn2c1=O` registered an RP-LC retention time of 867 s.

On to `O=C(C1CCCC1)N1CCN(c2cc(-c3ccccc3)[nH]n2)CC1`, for which the RP-LC retention time stood at 782 s.

Turning to `Cc1nn(-c2ccccc2)c2sc(C(=O)Oc3ccc(F)cc3)cc12`, the RP-LC retention time is 1380 s.

As for `CCN1C(=O)NC(c2ccc(C(F)(F)F)cc2)C2=C1CN(CCC(=O)N1CCOCC1)C2=O` (centres undefined), the RP-LC retention time came out at 638 s.

Molecule `O=C1CCN(C(=O)C2CCN(C(=O)C3CCCC3)CC2)CCCCCCN1` gave an RP-LC retention time of 652 s.

For the molecule `CCc1noc(C2CCCCN2C(=O)CCc2c[nH]c3ccccc23)n1` (centres undefined), the RP-LC retention time turned out to be 888 s.

`Cc1ccc(Cn2cc(-c3ccncc3)cc2C(=O)NCc2cccnc2)cc1`: the RP-LC retention time is 581 s.

On to `CCn1cc(C(=O)NCc2ccc(SC)cc2)c(=O)c2ccc(C)nc21`, for which the RP-LC retention time worked out at 997 s.

The molecule `CCOC(=O)c1cc2c([nH]c1=O)CC(c1ccc(C)cc1)CC2=O` (centres undefined) came in with an RP-LC retention time of 780 s.

In turn, `O=C(c1c[nH]c2ccccc12)N1C[C@@H]2C[C@H]1C[C@@H]2NS(=O)(=O)c1ccccc1` yielded an RP-LC retention time of 679 s.

Consider `Cc1cccc2c1cnn2C(=O)CCC(=O)N1CCN(c2ccccn2)CC1`, for which the RP-LC retention time was 632 s.

The molecule `COc1ccc(-c2nc(-c3cn(-c4ccc(C)cc4)nn3)no2)c(OC)c1` gave an RP-LC retention time of 1050 s.

For `CCc1nc2ccccc2c(=O)n1Cc1noc(-c2cccc(N(C)C)c2)n1`, the RP-LC retention time is 998 s.

`O=C(Nc1ccc(Br)cc1)Nc1c(-c2ccncc2)nc2ccccn12` returned an RP-LC retention time of 641 s.

The molecule `O=C(Nc1ccccc1)N1CCC2(CC1)N(C1CCCC1)C(=O)CS2=O` (centres undefined) returned an RP-LC retention time of 692 s.

`O=C(Nc1cccc(C(F)(F)F)c1)Nc1cc(Cl)ccc1C(=O)O` displayed an RP-LC retention time of 1080 s.

`O=S(=O)(c1ccc2c(c1)CCC2)N1CCCC1c1nc(-c2ccc(Cl)cc2)no1` (centres undefined) had an RP-LC retention time of 1310 s.

In turn, `Cc1noc([C@@H]2CC(F)(F)CN2S(=O)(=O)c2cccc(F)c2)n1` gave an RP-LC retention time of 891 s.

Regarding `O=C(NCc1csc(C2CCCN(C(=O)COc3ccccc3)C2)n1)C1CC1` (centres undefined), the RP-LC retention time worked out at 718 s.

`O=C(CCC[C@@H]1[C@H]2CCCN3CCC[C@@H](CN1C(=O)c1ccco1)[C@@H]23)Nc1ccccc1` displayed an RP-LC retention time of 614 s.

In turn, `CC(C)(C)c1ccc(C(=O)NC2(c3nc(-c4ccccc4)no3)CCCCC2)cc1` displayed an RP-LC retention time of 1410 s.

`O=C([C@@H]1C[C@H](F)CN1C(=O)NCCc1ccccc1)N1CCOCC1` came in with an RP-LC retention time of 608 s.

`COC(=O)C1=CN(c2ccc(F)c(F)c2)c2ccc(F)cc2S1(=O)=O` came in with an RP-LC retention time of 854 s.

`Cc1ccc(Cl)cc1NC(=O)c1cccn1Cc1noc(C2CC2)n1`: the RP-LC retention time worked out at 1000 s.

In the case of `Cc1noc(C2CN(C(=O)NC(C)(C)C)CC23CCOCC3)n1` (centres undefined), the RP-LC retention time was found to be 670 s.

With `COCc1nc(-c2ccc(OC3CN(Cc4cccs4)C3)cc2)no1`, the RP-LC retention time amounted to 661 s.

`CCCNC(=O)C1CCN(c2ccc(SCC(=O)NCc3ccc(C(F)(F)F)cc3)nn2)CC1` had an RP-LC retention time of 675 s.

As for `CCCN(CC1CCOC1)C(=O)Nc1ccccc1F` (centres undefined), the RP-LC retention time was 728 s.

Take `O=C(Nc1ccccc1F)N1CCN(c2cc(-c3ccncc3)[nH]n2)CC1`: the RP-LC retention time was 553 s.

`Cc1ccc2c(c1)NN=C(C(=O)N1CCOCC1)S2(=O)=O`: the RP-LC retention time is 639 s.

With `CCN1C(=O)C2(C(C#N)=C(N)Oc3n[nH]c(-c4ccccc4)c32)c2ccccc21` (centres undefined), the RP-LC retention time was 733 s.

`CCCNC(=O)C1CCN(c2ccc(SCC(=O)Nc3ccc(C)cc3Cl)nn2)CC1` yielded an RP-LC retention time of 1160 s.

For `Cc1nnc(C2CC3(CCN(CCO)CC3)CN2Cc2ccccc2)o1` (centres undefined), the RP-LC retention time is 565 s.

Molecule `CC1CCN(C(=O)CN2C(=O)COc3ccc(C(=O)N4CCCCC4)cc32)CC1` gave an RP-LC retention time of 716 s.

Consider `CCCN(CCC)C(=O)c1cc(NC(=O)C(C)C)cnc1N1CCNCC1`, for which the RP-LC retention time was found to be 606 s.

As to `O=C(Cn1ccc2c(SCc3ccccc3)nccc21)NCCCN1CCCC1`, the RP-LC retention time is 587 s.

For `O=C(NCc1ccc(F)cc1)c1nc(Cn2c(=O)oc3ccc(Cl)cc32)no1`, the RP-LC retention time was 942 s.

As for `COc1ccc(-c2noc(C3CCCN3C(=O)CNC(=O)c3ccccc3)n2)cc1` (centres undefined), the RP-LC retention time was found to be 792 s.

Molecule `CCC(=O)Nc1ccc(S(=O)(=O)N2CCC(N3CCOCC3)CC2)cc1` displayed an RP-LC retention time of 575 s.
